In patent US9145424B2, “Treatment of amyotrophic lateral sclerosis” (Northwestern University, priority 2008, dated 2015):
Converted amounts (≈) assume the structure as drawn. “And” between values parts separate entries of the source, which are not always exact repeats. Equal values may be shown once. Read-outs that look alike come from different tables or passages of the source.

What was measured:
[1] = in vivo; conditions: mouse
[2] = Metabolic half-life in rats; format: in vitro ADME; conditions: rat
Source text: (§1) CMB-087229 was sent for an evaluation of its in vitro ADME properties.

[3] = system: PC12 cells that express mutant G93A SOD1; experiment: Mutant SOD1-induced cytotoxicity protection assay
Procedure: This idea was tested by examining the sensitivity of PC12 cells to SOD1 aggregates in the presence and absence of proteasome inhibitor MG132. PC12 cells expressing no SOD1, wild type SOD1, G85R SOD1 or G93A SOD1 were grown with or without MG132 (FIG. 1).
PC12 cells expressing G93A SOD1 were treated with 100 nM MG132 with or without co-treatment with geldanamycin or radicicol.

[4] = In vitro microsomal stability, human; format: in vitro ADME; conditions: human, human liver microsomes; read-out: human metabolic potential T1/2
Procedure: (§2) Metabolism (microsome, S9 fraction, CYP450): Liver Cytochrome P450 (CYP450) enzymes are the major route for xenobiotic metabolism and microsomal and hepatocyte stability is the best predictor of pharmacokinetic half-life. Cross-species comparisons of metabolism in liver microsomes can predict potential issues with liver toxicity in humans. Selected active compounds are tested in liver microsomes from efficacy species (mouse), toxicity species (rat, dog, monkey), and humans for metabolic stability.
as §1
(§3) Two possible amines, secondary and tertiary AAP analogues, were initially screened in the protection assay (FIG. 30) and for in vitro microsomal stability (Table 1) and Caco-2 permeability (Table 2). […] The solubilities of 2 and 3 were good in aqueous media (≧150 μM), and no precipitation occurred at the highest concentration. The in vitro plasma half-life for both compounds was >60 min.

[5] = Aqueous solubility; format: physicochemical
Procedure: Solubility: Because compounds are stored in DMSO, it is necessary to determine aqueous solubility of initial hit compounds and their analogs. High solubility in aqueous solution is necessary for high GI absorption, bioavailability, and for chemical formulation. Compounds should be soluble in aqueous solution at >10 μg/ml. Solubility of >50 μg/ml is preferred.

[6] = In vitro microsomal stability, mouse; format: in vitro ADME; conditions: mouse, mouse liver microsomes; read-out: mouse metabolic potential T1/2
Procedure: as §2, §1, §3

[7] = Brain uptake procedure, LCMS of brain and plasma; format: in vivo, mice (Tg6799 colony with B6/SJL background); conditions: 1 mg/kg i.p.; for concentration at 10 min / Kp at 10 min: Tg6799 colony with B6/SJL background, mouse, intraperitoneal, 1 mg/kg; for Kp at 10 min: brain/plasma
Procedure: CMB-087229 Mice Brain and Plasma Data CMB-087229 (1 mg/kg) was administrated to mice (Tg6799 colony with B6/SJL background) by intraperitoneal injection in a 60% PBS and 40% dimethyl sulfoxide solution. At 10 minutes after compound administration the mice were sacrificed. Blood was harvested and plasma was transferred to flash freeze in liquid nitrogen after centrifugation. Mice were perfused. The brain was homogenized in 100% acetonitrile. CMB-003319 (0.5 μg, 1.73 nmol) was added as an internal standard. The homogenates were centrifuged at 12000×g for 12 min, and the supernatant was evaporated. The residue was reconstituted in 33.3% acetonitrile. Solid phase extraction followed by LCMS (API 300 liquid chromatography-tandem mass spectrometry system, Applied Biosystems, Foster City, Calif.; Agilent 1100 series HPLC system, Agilent Technologies, Wilmington, Del.) was used to quantify the amount of CMB-087229 in mouse brain. Solid-phase extraction cartridges (Sep-Pak C18, Water Associates, Milford, Mass.) were washed with 1 mL acetonitrile and equilibrated with 1 mL of water. The reconstituted supernatant was then loaded, washed with 1 mL×2 of 33.3% acetonitrile. CMB-087229 was then dried and submitted for LCMS.

[8] = system: G93A SOD1 ALS mice; experiment: Survival in the G93A SOD1 ALS mouse model; format: in vivo; conditions: 20 mg/kg
Procedure: The compounds identified were evaluated in the transgenic G93A ALS mouse model. ADME data was used to determine optimal route of administration. LD50 and maximally-tolerated dose were determined, and that information was used to design and execute pharmacokinetic studies to assess brain bioavailability, and to guide choice of dosing regimen (i.e., frequency, dose, route). […] This may include further dose optimization, phenotype assessment, comparison with compounds of established efficacy, and analysis of brain tissue in treated animals.
In the present study, G93A SOD1 mice and littermate controls were bred from existing colonies at the Bedford VA Medical Hospital. The male G93A SOD1 mice were mated with B6SJL females and the offspring were genotyped by PCR using tail DNA. […] Mice were housed in micro-isolator cages in complete barrier facilities. A 12 hour light-dark cycle was maintained and animals were given free access to food and water. Control and transgenic mice of the same age (±2 days) and from the same ‘f’ generation were selected from multiple litters to form experimental cohorts (n=20 per group). […]
Data sets are generated and analyzed for each clinical and neuropathological measure. […] Dose-dependent effects are assessed in each treatment group using multiple two-sided ANOVA tests. […]

[9] = In vitro plasma stability; format: in vitro ADME; conditions: plasma; read-out: plasma stability T1/2
Procedure: Plasma stability: Plasma stability of active compounds is assessed in efficacy species (mouse), toxicity species (rat, dog, monkey), and human cells.

[10] = In vitro Caco-2 permeability; format: in vitro ADME; conditions: human, Caco-2
Procedure: General Permeability: High membrane permeability is required for effective GI absorption and optimal bioavailability. Passive permeability is typically assessed in the PAMPA artificial membrane assay (Kansy et al., J. Med. Chem. 2002, 45(8), 1712-1722). Cell-based permeability determinations using the Caco-2 cell assay are more resource intensive but more predictive of active transport or efflux in vivo (Artursson et al., Adv. Drug. Deliv. Rev. 2001, 46(1-3), 27-43). Caco-2 assays are performed as needed during SAR development.

Compound `O=c1cc(COc2cc(Cl)cc(Cl)c2)[nH][nH]1` [CMB-087229] has a Kp [1] of roughly 0.55, a concentration at 4 h ([1]; concentration in the brain) of 194 µM and a concentration at 3 h ([1]; plasma concentration) of 342 µM. The concentration at 6 h ([1]; plasma concentration) was 347 µM, the concentration at 12 h ([1]; plasma concentration) was 248 µM and the concentration at 24 h ([1]; plasma concentration) was 1.68 µM. For the same compound, the half-life [2] was roughly 2 h, the “potency (ED50)” value [3] was 74 nM and the half-life [4] was 1.55 h. For the same compound, the aqueous solubility [5] was 250 µM (≈ 64.8 µg/mL), the half-life [6] was 0.6 h and the “Brain Extract concentration” value ([7]; 10 minutes, single mice) was 0.159 µg/mL and 0.187 µg/mL. For the same compound, the Brain concentration ([7]; 10 minutes, single mice) was 0.366 µg/g and 0.467 µg/g, the “Brain/plasma Ratio July” value ([7]; 10 minutes, single mice) was 4.10 and 3.13 and the “Plasma concentration July” value ([7]; 10 minutes, single mice) was 89.2 ng/mL and 149 ng/mL. It also gave a concentration at 10 min ([7]; brain extract, 10 minutes, single mice, read-out: Brain Extract concentration) of 121 ng/mL, a concentration at 10 min ([7]; brain, 10 min July, read-out: Brain concentration (Mean ± S.E.)) of 363 ± 105 ng/g and a concentration at 10 min ([7]; brain, 10 minutes, single mice, read-out: Brain concentration) of 257 ng/g. It also gave a Kp at 10 min ([7]; 10 min July, read-out: Brain/Plasma Ratio (Mean ± S.E.)) of 3.36 ± 0.66, a Kp at 10 min ([7]; 10 minutes, single mice, read-out: Brain/plasma Ratio July) of 2.84 and a concentration at 10 min ([7]; plasma, 10 min July, read-out: Plasma concentration (Mean ± S.E.)) of 110 ± 34.2 ng/mL. The concentration at 10 min ([7]; plasma, 10 minutes, single mice, read-out: Plasma concentration July) was 90.4 ng/mL, the extension in survival [8] was 13.4% and the half-life [9] was 0.283 h. For the same compound, the Papp (A→B) [10] was 37 ×10⁻⁶ cm/s.
